Here are results for 13 molecules from ChEMBL document CHEMBL1201862, “PubChem BioAssay data set” (2004).

In general, GI50 refers to the concentration at which growth is held to half of that of the control.

Among the test systems are EKVX; IGROV-1; RPMI-8226; NCI-H226; K562; CCRF-CEM; SK-MEL-2; MOLT-4; HCT-116; HT-29; SK-MEL-28; SNB-19; SF-268; A549; MCF7; DU-145; NCI/ADR-RES; PC-3; MDA-MB-231; Hs-578T.
Common to all, as to experiment: DTP human tumour cell line panel, 48 h

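Protocol summary: plate cells (96-well), add compound at 5 concentrations, incubate 48 h, interpolate endpoints linearly. The concentration for 50% growth inhibition is given as GI50.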 Calls of active or inactive are those of the source. Rule as the data show it: active = GI50 up to about 1.1 µM and inactive = higher.

With `Oc1ccc2c(O)cc(-c3ccccc3)nc2c1`, the GI50 in the experiment with EKVX was 35.9 µM (inactive); in the experiment on IGROV-1, 29 µM (inactive); with RPMI-8226, 17.5 µM (inactive); with NCI-H226 it was 65.3 µM (inactive); in the experiment with K562 it was 19.2 µM (inactive); in the experiment on CCRF-CEM it was 18.2 µM (inactive). The GI50 is 31.7 µM (inactive) in the experiment on SK-MEL-2; 21.1 µM (inactive) in the experiment on MOLT-4; 17.4 µM (inactive) in the experiment on HCT-116; 23.3 µM (inactive) with HT-29; 38.3 µM (inactive) in the experiment on SK-MEL-28; 32.4 µM (inactive) in the experiment with SNB-19. The GI50 was 32.4 µM (inactive) in the experiment with SF-268 and 23.1 µM (inactive) in the experiment with A549.
Turning to `C[C@]12CC[C@H]3[C@@H](CCC4=C/C(=N/OCCN5CCCCC5)CC[C@@]43C)[C@@H]1CC[C@@H]2O`, the GI50 in the experiment on MCF7 was 12 µM (inactive); in the experiment with EKVX, 27.3 µM (inactive); in the experiment on DU-145, 21.9 µM (inactive); with IGROV-1, 27.4 µM (inactive); with RPMI-8226, 10.7 µM (inactive); with NCI/ADR-RES, 16.7 µM (inactive). Besides, the GI50 is 4.29 µM (inactive) in the experiment on NCI-H226; 2.75 µM (inactive) in the experiment on K562; 16.2 µM (inactive) in the experiment with PC-3; 9.31 µM (inactive) in the experiment with CCRF-CEM; 14.6 µM (inactive) with SK-MEL-2; 5.81 µM (inactive) in the experiment on MOLT-4. Also, the GI50 in the experiment on HCT-116 was 19.3 µM (inactive); in the experiment with HT-29, 1.37 µM (inactive); with SK-MEL-28, 13.6 µM (inactive); in the experiment with SNB-19, 5.68 µM (inactive); in the experiment with MDA-MB-231 it was 22.2 µM (inactive); in the experiment on A549 it was 14.4 µM (inactive).
Turning to `COc1ccc2[nH]c3c([N+](=O)[O-])ccc(NCCN(C)C)c3/c(=N/CCN(C)C)c2c1`, the GI50 was 0.453 µM (active) in the experiment with MCF7; 2.24 µM (inactive) in the experiment with EKVX; 2.88 µM (inactive) in the experiment with DU-145; 1.91 µM (inactive) with IGROV-1; 0.421 µM (active) in the experiment with RPMI-8226; 1.22 µM (inactive) in the experiment on K562. Besides, the GI50 in the experiment with PC-3 was 0.676 µM (active); in the experiment on CCRF-CEM, 0.237 µM (active); in the experiment on MOLT-4, 0.172 µM (active); with HT-29, 1.77 µM (inactive); with SK-MEL-28, 2.26 µM (inactive); in the experiment on MDA-MB-231, 1.28 µM (inactive). In addition, the GI50 in the experiment with SF-268 was 0.962 µM (active); with A549, 1.66 µM (inactive).
Consider `Cc1c(Cl)ccc2c1NC(=O)C2(O)CC(=O)c1ccc2ccccc2c1` (stereo not drawn), for which the GI50 with EKVX was 84.7 µM (inactive); in the experiment on IGROV-1, 37.5 µM (inactive); in the experiment with RPMI-8226, 19.1 µM (inactive); in the experiment on NCI-H226, 24.4 µM (inactive); with K562 it was 28.6 µM (inactive); with CCRF-CEM, 29 µM (inactive). The GI50 with SK-MEL-2 was > 100 µM (inactive); with MOLT-4, 18.6 µM (inactive); with HCT-116, 48.5 µM (inactive); with HT-29, 39.6 µM (inactive); in the experiment on SK-MEL-28 it was 48.2 µM (inactive); in the experiment with SNB-19, 45.8 µM (inactive). Besides, the figures for the GI50 in the experiment with SF-268 and with A549 were 32.1 µM (inactive) and 53.3 µM (inactive), respectively.
For `Cn1c2ccccc2c2cc(-c3ccccc3)c3c(c21)C(=O)c1ccccc1C3=O`, the GI50 in the experiment on EKVX was > 10 µM (inactive); in the experiment with IGROV-1 it was 21 µM (inactive); in the experiment on RPMI-8226, 4.67 µM (inactive); in the experiment with NCI-H226, 22 µM (inactive); in the experiment with K562, 21.4 µM (inactive); in the experiment with CCRF-CEM, 5.19 µM (inactive). Besides, the GI50 in the experiment on SK-MEL-2 was 19.5 µM (inactive); in the experiment with MOLT-4 it was 5.04 µM (inactive); with HCT-116 it was 15.8 µM (inactive); with HT-29 it was 31.9 µM (inactive); with SK-MEL-28, 14.7 µM (inactive); in the experiment with SNB-19, 61.1 µM (inactive). For the same molecule, the GI50 in the experiment with SF-268 was 19.1 µM (inactive); in the experiment on A549, 20.4 µM (inactive).
In the case of `COc1ccccc1NC(=O)CC(=O)N/N=C/c1ccc(N(CCC#N)S(=O)(=O)c2ccccc2)cc1`, the GI50 in the experiment on EKVX, with IGROV-1, in the experiment with RPMI-8226, in the experiment with NCI-H226, in the experiment on K562 and in the experiment with CCRF-CEM was > 100 µM (inactive) throughout. Also, the GI50 in the experiment on SK-MEL-2, in the experiment with MOLT-4, with HCT-116, with HT-29, in the experiment on SK-MEL-28 and in the experiment on SNB-19 was > 100 µM (inactive) throughout. In addition, the GI50 in the experiment on SF-268 and in the experiment with A549 was > 100 µM (inactive) each time.
`Nn1c(CCCl)nc2c(Br)cc(Br)cc2c1=O`: the GI50 is 29.8 µM (inactive) with EKVX; 21 µM (inactive) in the experiment on IGROV-1; 24.4 µM (inactive) in the experiment on RPMI-8226; 28.5 µM (inactive) in the experiment with NCI-H226; 13.2 µM (inactive) in the experiment with K562; 8.2 µM (inactive) in the experiment on CCRF-CEM. In addition, the GI50 with SK-MEL-2 is 33.1 µM (inactive); in the experiment on MOLT-4, 22.7 µM (inactive); with HCT-116, 25.3 µM (inactive); in the experiment on HT-29 it was 32.7 µM (inactive); in the experiment with SK-MEL-28, 37.2 µM (inactive); with SNB-19, 51.9 µM (inactive). The values for the GI50 with SF-268 and with A549 were 37.1 µM (inactive) and 43.7 µM (inactive), respectively.
Turning to `[N-]=[N+]=Nc1ccc2c(c1)Sc1ccccc1N2CCCCN1CCN(Cc2ccc(C(=O)c3ccc(CSCC(N)C(=O)O)cc3)cc2)CC1` (stereo not drawn), the GI50 in the experiment on MCF7 is 16.4 µM (inactive); with EKVX it was 52.8 µM (inactive); in the experiment on DU-145, 21.3 µM (inactive); in the experiment on IGROV-1 it was 13.5 µM (inactive); in the experiment with RPMI-8226, 13.2 µM (inactive); in the experiment with NCI-H226 it was 13.2 µM (inactive). The GI50 was 12.5 µM (inactive) with K562; 43.5 µM (inactive) with PC-3; 14.3 µM (inactive) with CCRF-CEM; 19.3 µM (inactive) in the experiment on SK-MEL-2; 15.3 µM (inactive) in the experiment with MOLT-4; 15.2 µM (inactive) in the experiment with HCT-116. Further, the GI50 is 14 µM (inactive) with HT-29, 2.01 µM (inactive) with SK-MEL-28, 13.6 µM (inactive) in the experiment with MDA-MB-231 and 27.5 µM (inactive) in the experiment with SF-268.
With `CN/N=C(\C(=O)Nc1ccc([N+](=O)[O-])cc1[N+](=O)[O-])C1NC(=O)NC1=O` (stereo not drawn), the GI50 in the experiment with EKVX, in the experiment with IGROV-1, in the experiment with RPMI-8226, with NCI-H226, with K562 and in the experiment on CCRF-CEM was > 100 µM (inactive) each time. Besides, the GI50 in the experiment on SK-MEL-2 is > 100 µM (inactive); with MOLT-4, > 100 µM (inactive); in the experiment with HCT-116, > 100 µM (inactive); with HT-29, 80.5 µM (inactive); with SK-MEL-28 it was > 100 µM (inactive); in the experiment with SNB-19 it was > 100 µM (inactive). The GI50 with SF-268 and in the experiment with A549 was > 100 µM (inactive) in each case.
For `C=C1C(=O)OC2CC3(C)C=CC(=O)C(=C)C3CC12` (stereo not drawn), the GI50 was 2.77 µM (inactive) with EKVX; 2.28 µM (inactive) in the experiment on IGROV-1; 0.589 µM (active) in the experiment on RPMI-8226; 12.1 µM (inactive) in the experiment on NCI-H226; 1.71 µM (inactive) in the experiment with K562; 0.317 µM (active) in the experiment on CCRF-CEM. Also, the GI50 in the experiment on SK-MEL-2 was 1.67 µM (inactive); in the experiment with MOLT-4, 1.03 µM (active); with HCT-116 it was 1.28 µM (inactive); in the experiment with HT-29, 1.65 µM (inactive); in the experiment on SK-MEL-28 it was 1.77 µM (inactive); in the experiment on SNB-19, 8.55 µM (inactive). Further, the GI50 is 2.59 µM (inactive) in the experiment with SF-268 and 5.62 µM (inactive) in the experiment on A549.
`COc1cccc(/C(C=O)=C(\Cl)c2ccc(OC)c(OC)c2)c1`: the GI50 is 17.9 µM (inactive) in the experiment on EKVX; 21.1 µM (inactive) in the experiment with IGROV-1; 11.5 µM (inactive) in the experiment with RPMI-8226; 14 µM (inactive) in the experiment on NCI-H226; 13.6 µM (inactive) in the experiment on K562; 7.74 µM (inactive) in the experiment with CCRF-CEM. Also, the GI50 in the experiment on SK-MEL-2 is 19.2 µM (inactive); with MOLT-4 it was 13.2 µM (inactive); in the experiment on HCT-116, 10.6 µM (inactive); in the experiment on HT-29, 14.4 µM (inactive); with SK-MEL-28, 15.1 µM (inactive); in the experiment with SNB-19, 3.94 µM (inactive). The GI50 with SF-268 was 11.7 µM (inactive); with A549, 19.5 µM (inactive).
For the molecule `N=C(N)N/N=C/c1c(-c2ccc(Cl)cc2)nc2n1CCS2`, the GI50 in the experiment with MCF7 is 11.5 µM (inactive); with EKVX, 16.6 µM (inactive); with DU-145 it was 12.8 µM (inactive); in the experiment on IGROV-1, 13.9 µM (inactive); in the experiment with RPMI-8226 it was 7.53 µM (inactive); in the experiment on NCI/ADR-RES, 16.4 µM (inactive). Besides, the GI50 in the experiment with NCI-H226 was 20.1 µM (inactive); in the experiment on K562, 2.98 µM (inactive); with PC-3 it was 4.14 µM (inactive); in the experiment with CCRF-CEM, 2.43 µM (inactive); with SK-MEL-2, 10.8 µM (inactive); in the experiment with MOLT-4 it was 2.68 µM (inactive). In addition, the GI50 is 4.25 µM (inactive) in the experiment with HCT-116; 8.87 µM (inactive) in the experiment with HT-29; 12.7 µM (inactive) in the experiment on SK-MEL-28; 15.6 µM (inactive) with SNB-19; 11.5 µM (inactive) in the experiment on SF-268; 10 µM (inactive) with A549. Also, the GI50 in the experiment on Hs-578T is 24.3 µM (inactive).
As for `C[C@@]12C(=O)OC(=O)[C@]1(C)[C@H]1CC[C@@H]2O1` [CANTHARIDIN], the GI50 is 7.76 µM (inactive) in the experiment with MCF7; 0.45 µM (active) in the experiment with EKVX; 1.02 µM (active) with DU-145; 2.16 µM (inactive) with IGROV-1; 2.08 µM (inactive) with RPMI-8226; 6.5 µM (inactive) in the experiment on NCI/ADR-RES. The GI50 was 1.06 µM (active) with NCI-H226; 2.3 µM (inactive) in the experiment with K562; 0.279 µM (active) in the experiment on PC-3; 1.19 µM (inactive) in the experiment on CCRF-CEM; 1.45 µM (inactive) in the experiment on SK-MEL-2; 9.79 µM (inactive) in the experiment on MOLT-4. Further, the GI50 is 1.98 µM (inactive) in the experiment on HCT-116; 1.66 µM (inactive) with HT-29; 3.48 µM (inactive) with SK-MEL-28; 1.1 µM (active) in the experiment with SNB-19; 1.33 µM (inactive) in the experiment on MDA-MB-231; 1.77 µM (inactive) in the experiment with SF-268. Besides, the GI50 in the experiment with A549 is 0.918 µM (active).
